{"source": "patent US6962906B2", "about": "“Oligonucleotide analogues, methods of synthesis and methods of use” (Active Motif, priority 2000, dated 2005)", "tested_on": "Target oligonucleotides (SEQ ID NO:33-36)", "assay": "Affinity PAGE capture of target DNA and RNA oligonucleotides, detection with ethidium bromide", "format": "binding", "details": "electrophoresis at 40° C.", "description": "A HypNA-pPNA capture probe with the sequence: (Ch-Tp-Gh-Cp-Ah-Ap-Ah-Gp-Gh-Ap-Ch-Ap-Ch-Cp-Ah-Tp)-dG was synthesized coupled to a 5′ acrylamide residue as described in Example 19. The capture probe was co-polymerized with acrylamide as described in Example 18 in slots of an acrylamide gel as described in Rehman et al. (Nucleic Acids Research 27: 649-655 (1999)). Target oligonucleotides having the sequence: • d([…]) (SEQ ID NO:33)—complementary • d([…]) (SEQ ID NO:34)—mismatched • r([…]) (SEQ ID NO:35)—complementary • r([…]) (SEQ ID NO:36)—mismatched were electrophoresed through lanes of the gel at 40° C.\nFollowing electrophoresis, the gel was stained with ethidium bromide and photographed under UV illumination.", "data": [{"substance": "(Ch-Tp-Gh-Cp-Ah-Ap-Ah-Gp-Gh-Ap-Ch-Ap-Ch-Cp-Ah-Tp)-dG [capture HypNA-pPNA probe]", "values": [{"measurement": "capture of complementary target oligonucleotides in the gel (ethidium bromide fluorescence)", "setting": "complementary DNA and RNA targets, lanes 1, 3, and 5", "value": "ethidium-stained fluorescent hybrids captured by the gel layer"}, {"measurement": "capture of mismatched target oligonucleotides in the gel (ethidium bromide fluorescence)", "setting": "single nucleobase mismatched DNA and RNA targets, lanes 2, 4, and 6", "value": "did not result in the capture of a target"}]}]}
